In PubChem BioAssay (NCI):
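How tested: cells in 96-well plates exposed to compound for 48 hours at five concentrations. The concentration for 50% growth inhibition is given as GI50. TGI denotes the concentration required for complete inhibition of growth.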

What was measured:
Assay in all cases: DTP human tumour cell line panel, 48 h
[1] = tested on: RXF 393 renal
[2] = tested on: SK-MEL-5 melanoma
[3] = tested on: UO-31 renal
[4] = tested on: NCI-H522 lung
[5] = tested on: OVCAR-5 ovarian
[6] = tested on: TK-10 renal
[7] = tested on: SF-539 CNS
[8] = tested on: SNB-75 CNS
[9] = tested on: SK-MEL-2 melanoma
[10] = tested on: SR leukemia

Row | SMILES | GI50 [1] [µM] | TGI [1] [µM] | GI50 [2] [µM] | TGI [2] [µM] | GI50 [3] [µM] | TGI [3] [µM] | GI50 [4] [µM] | TGI [4] [µM] | GI50 [5] [µM] | TGI [5] [µM] | GI50 [6] [µM] | TGI [6] [µM] | GI50 [7] [µM] | TGI [7] [µM] | GI50 [8] [µM] | TGI [8] [µM] | GI50 [9] [µM] | TGI [9] [µM] | TGI [10] [µM] | GI50 [10] [µM]
1 | CN(C)CCNc1c2c(c(NCCN(C)C)c3[nH]ccc13)C(=O)c1ccccc1C2=O | 1.5 | 3.63 | 1.81 | 3.88 | 2.28 | > 100 | 3.3 | > 100 | 2.1 | 13 | 1.57 | 5.14 | 1.01 | 3.8 | 2.75 | 30.6 | – | – | – | –
2 | N#Cc1c(N2CCCC2)[nH]c(=O)c(C(c2c(Cl)cccc2Cl)c2c(O)c(C#N)c(N3CCCC3)[nH]c2=O)c1O | 2.69 | 15.4 | 0.409 | 13.5 | 16.1 | 35.9 | 9.74 | 35.1 | 19.2 | 38.3 | 12.4 | 29.6 | 0.369 | 10.9 | 12.5 | 33 | 16.6 | 45.4 | – | –
3 | COc1cc(/C=C/c2cc(O)c3cc(C(C)=O)c(=O)oc3c2)cc2c1O[C@]1(C)CC[C@@H](O)C(C)(C)[C@H]1C2 | – | – | – | – | – | > 26.2 | > 25.9 | > 53 | > 36.5 | > 86 | > 42.7 | > 77.7 | – | > 23.6 | – | > 48 | – | > 45.8 | > 100 | –
4 | COc1ccc(OC)c(NC(=O)C2=C(C)NC(C)=C(C(=O)Nc3cc(OC)ccc3OC)C2c2ccccc2)c1 | – | > 100 | – | > 100 | – | > 100 | – | > 100 | – | > 100 | – | > 100 | – | > 100 | – | 91 | – | > 100 | – | –
5 | COc1ccc(-c2n/c(=C\c3c(O)[nH]c4ccc(OC)cc34)cc3c2=Nc2ccccc2-3)cc1 | – | – | 1.53 | 2.91 | 18 | 56.1 | – | – | 44.5 | > 100 | 2.09 | 3.87 | 1.85 | 3.4 | 1.55 | 2.99 | – | – | – | –
6 | COc1ccc2c(c1)/C(=C\c1c(C)nc3sccn13)C(=O)N2 | 0.722 | > 90.4 | < 0.0474 | 3.39 | 0.0147 | 20.3 | < 0.01 | – | 7.81 | > 100 | – | > 63.5 | – | – | 0.372 | > 100 | 0.162 | > 83.7 | 0.38 | 0.0309
7 | CC1C=C(OC(=O)c2ccccc2)C(=O)C(n2cc(F)c(=O)[nH]c2=O)O1 (stereo not given) | – | – | – | > 100 | – | > 100 | – | > 100 | – | > 100 | – | > 100 | – | > 100 | – | > 100 | – | > 100 | – | –
8 | C1C[OH+]CC[OH+]CCNCC[OH+]CC[OH+]CCN1.N.[Cl-].[Pt+4] | 2.49 | 12.3 | 10.3 | 25.3 | 12.2 | 32 | 12.9 | 48.1 | – | – | 8.31 | 71.3 | 3.95 | 19.6 | 3.59 | 20.2 | 19.9 | 53 | – | –
9 | Nc1nc2c(c3ncncc13)C(c1cccc(C(F)(F)F)c1)Cc1ncncc1-2 (stereo not given) | 2.96 | 8.81 | 4.88 | 17.7 | 7.22 | 85 | 4.66 | 26.1 | 11.3 | 31.4 | 9.05 | 79.4 | 1.98 | 5.97 | 3.11 | 43.7 | 5.36 | 29.7 | – | –
10 | CCCCCCCCCCCCCCCCN1CC2CCCCC2C1 (stereo not given) | 2.3 | 6.78 | 5.84 | 19.5 | 6 | 19.2 | 4.4 | 17 | 5.33 | 18.8 | 11.2 | 26.1 | 5.52 | 18.6 | – | – | 12.1 | 26.3 | 4.64 | 2.07
11 | COc1ccc2nc(-c3cccs3)cc(C(O)CN3CCSCC3)c2c1 (stereo not given) | – | > 100 | – | 37.6 | – | 60.8 | – | 45.3 | – | 59.8 | – | 91.8 | – | 51.3 | – | 78.7 | – | 36 | – | –
12 | CCOC(=O)COc1ccccc1/C=C1\CCC(CN(C)C)C1=O (stereo not given) | – | 7.94 | – | 22.4 | – | 29.9 | – | 6.01 | – | 32.4 | – | 25.6 | – | 26.6 | – | 29.5 | – | 24.7 | – | –
13 | Nc1ccccc1C#C/C=C\C#Cc1cccs1 | 33.8 | > 83.9 | 4.36 | 17.6 | 8.77 | > 43.5 | 6.84 | 31.6 | 15.2 | 32.7 | 17.3 | 39.8 | 5.6 | 17.8 | 16.8 | 61.9 | 16.2 | 43.3 | – | –
14 | CCCCC(CC)CN=C(N)NC(N)=NCCCCCCN=C(N)NC(N)=NCC(CC)CCCC (stereo not given) | 2.27 | 6.43 | – | – | 3.03 | 10.1 | – | – | – | – | 4.03 | > 100 | – | – | – | – | – | – | – | –
15 | CC1=C(C)C(=O)c2c(cc3ccccn23)C1=O | – | 27.9 | – | 22.1 | – | 65.1 | – | – | – | 92.6 | – | 55.9 | – | 37.1 | – | 43.1 | – | – | 72.5 | –
16 | CC1=Nc2ccccc2S/C1=C(/C)NNC(=O)C(N)=O | – | > 100 | – | > 100 | – | > 100 | – | > 100 | – | > 100 | – | > 100 | – | > 100 | – | > 100 | – | > 100 | – | –
17 | C#CCOCn1cnc2c(Cl)ncnc21 | – | – | – | > 100 | – | > 100 | – | > 100 | – | > 100 | – | > 100 | – | > 100 | – | > 100 | – | > 100 | > 100 | –
